Data published in patent US20080175794A1, “Substituted Pyridazinyl- and Pyrimidinyl-Quinolin-4-Ylamine Analogues” (NEUROGEN CORPORATION, priority 2005, published 2008).

Molecular target: T1, human capsaicin receptor (Homo sapiens, UniProt Q8NER1)
T1 construct: expressed in transfected cells
Test: Calcium mobilization assay, determination of antagonist activity (Example 6)
Type: cell-based
Conditions: assay provided in Example 6, cells expressing human capsaicin receptor, capsaicin at EC50
Protocol: A cDNA encoding full length human capsaicin receptor (SEQ ID NO:1, 2 or 3 of U.S. Pat. No. 6,482,611) is subcloned in the plasmid pBK-CMV (Stratagene, La Jolla, Calif.) for recombinant expression in mammalian cells.
Human embryonic kidney (HEK293) cells are transfected with the pBK-CMV expression construct encoding the full length human capsaicin receptor using standard methods. The transfected cells are selected over two weeks in media containing G418 (400 μg/ml) to obtain a pool of stably transfected cells. Independent clones are isolated from this pool by limiting dilution to obtain clonal stable cell lines for use in subsequent experiments.
Cells transfected with expression plasmids (as described in Example 4) and thereby expressing human capsaicin receptor are seeded and grown to 70-90% confluency in FALCON black-walled, clear-bottomed 96-well plates (#3904, BECTON-DICKINSON, Franklin Lakes, N.J.). The culture medium is emptied from the 96 well plates and FLUO-3 AM calcium sensitive dye (Molecular Probes, Eugene, Oreg.) is added to each well (dye solution: 1 mg FLUO-3 AM, 440 μL DMSO and 440 μl 20% pluronic acid in DMSO, diluted 1:250 in Krebs-Ringer HEPES (KRH) buffer (25 mM HEPES, […], 0.96 mM NaH2PO4, 1 mM MgSO4, 2 mM CaCl2, 5 mM glucose, 1 mM probenecid, pH 7.4), 50 μl diluted solution per well). Plates are covered with aluminum foil and incubated at 37° C. for 1-2 hours in an environment containing 5% CO2. After the incubation, the dye is emptied from the plates, and the cells are washed once with KRH buffer, and resuspended in KRH buffer.
To measure the ability of a test compound to agonize or antagonize a calcium mobilization response in cells expressing capsaicin receptors to capsaicin or other vanilloid agonist, the EC50 of the agonist capsaicin is first determined. An additional 20 μl of KRH buffer and 1 μl DMSO is added to each well of cells, prepared as described above. 100 μl capsaicin in KRH buffer is automatically transferred by the FLIPR instrument to each well. Capsaicin-induced calcium mobilization is monitored using either FLUOROSKAN ASCENT (Labsystems; Franklin, Mass.) or FLIPR (fluorometric imaging plate reader system; Molecular Devices, Sunnyvale, Calif.) instruments. Data obtained between 30 and 60 seconds after agonist application are used to generate an 8-point concentration response curve, with final capsaicin concentrations of 1 nM to 3 μM. KALEIDAGRAPH software (Synergy Software, Reading, Pa.) is used to fit the data to the equation: […]
Test compounds are dissolved in DMSO, diluted in 20 μl KRH buffer so that the final concentration of test compounds in the assay well is between […] and 5 μM, and added to cells prepared as described above. The 96 well plates containing prepared cells and test compounds are incubated in the dark at room temperature for 0.5 to 6 hours. It is important that the incubation not continue beyond 6 hours. Just prior to determining the fluorescence response, 100 μl capsaicin in KRH buffer at twice the EC50 concentration determined as described above is automatically added by the FLIPR instrument to each well of the 96 well plate for a final sample volume of 200 μl and a final capsaicin concentration equal to the EC50. The final concentration of test compounds in the assay wells is between 1 μM and 5 μM. […] The concentration of antagonist required to provide a 50% decrease, relative to the response observed in the presence of capsaicin and without antagonist, is the IC50 for the antagonist, and is preferably below 1 micromolar, 100 nanomolar, 10 nanomolar or 1 nanomolar.

T1 sequence (Q8NER1 whole entry): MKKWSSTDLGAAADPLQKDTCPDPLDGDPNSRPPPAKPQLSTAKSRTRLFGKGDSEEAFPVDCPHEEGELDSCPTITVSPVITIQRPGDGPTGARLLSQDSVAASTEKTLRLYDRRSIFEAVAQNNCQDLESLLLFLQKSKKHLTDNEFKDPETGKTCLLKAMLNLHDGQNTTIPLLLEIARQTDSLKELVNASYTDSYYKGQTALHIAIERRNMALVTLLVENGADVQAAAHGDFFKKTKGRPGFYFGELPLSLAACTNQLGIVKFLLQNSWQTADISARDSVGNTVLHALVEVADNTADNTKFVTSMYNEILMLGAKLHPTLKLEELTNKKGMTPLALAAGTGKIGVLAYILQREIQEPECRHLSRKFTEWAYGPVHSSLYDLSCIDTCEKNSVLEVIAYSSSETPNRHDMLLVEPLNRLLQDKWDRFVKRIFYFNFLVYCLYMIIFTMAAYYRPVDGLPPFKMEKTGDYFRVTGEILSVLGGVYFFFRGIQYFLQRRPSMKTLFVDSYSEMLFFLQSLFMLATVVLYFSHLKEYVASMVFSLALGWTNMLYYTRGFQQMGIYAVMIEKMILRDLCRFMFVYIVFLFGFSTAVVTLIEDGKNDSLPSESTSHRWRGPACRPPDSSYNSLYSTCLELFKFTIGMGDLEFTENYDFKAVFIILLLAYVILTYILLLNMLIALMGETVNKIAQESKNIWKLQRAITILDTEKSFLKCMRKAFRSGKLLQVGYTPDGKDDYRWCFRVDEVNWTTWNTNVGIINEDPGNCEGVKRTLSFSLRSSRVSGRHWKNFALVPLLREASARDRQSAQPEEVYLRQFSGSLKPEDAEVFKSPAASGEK

SMILES | IC50 [nM] | IC50 (Table III) [nM]
FC(F)(F)c1ccc(Nc2ccnc3nc(-c4nnccc4C(F)(F)F)ccc23)nc1 [Compound 1, N-[5-(Trifluoromethyl)pyridin-2-yl]-7-[4-(trifluoromethyl)pyridazin-3-yl]-1,8-naphthyridin-4-amine] | < 1000 | 
FC(F)(F)c1ccc(Nc2ccnc3nc(-c4nnccc4C(F)(F)F)cnc23)nc1 [Compound 2, N-[5-(Trifluoromethyl)pyridin-2-yl]-3-[4-(trifluoromethyl)pyridazin-3-yl]pyrido[2,3-b]pyrazin-8-amine] | < 1000 | 
FC(F)(F)c1ccc(Nc2ccnc3nc(-c4ncncc4C(F)(F)F)ccc23)nc1 [Compound 5, N-[5-(Trifluoromethyl)pyridin-2-yl]-7-[5-(trifluoromethyl)pyrimidin-4-yl]-1,8-naphthyridin-4-amine] | < 1000 | 
CCOc1nc(Nc2ccnc3nc(-c4nnccc4C(F)(F)F)cnc23)ccc1C(F)(F)F [Compound 44, N-[6-ethoxy-5-(trifluoromethyl)-2-pyridinyl]-3-[4-(trifluoromethyl)-3-pyridazinyl]pyrido[2,3-b]pyrazin-8-amine] |  | < 1000
FC(F)(F)c1ccnnc1-c1cnc2c(Nc3cnc4ccccc4n3)ccnc2n1 [Compound 45, N-2-quinoxalinyl-3-[4-(trifluoromethyl)-3-pyridazinyl]pyrido[2,3-b]pyrazin-8-amine] |  | < 1000
FC(F)(F)c1cnc(Nc2ccnc3nc(-c4nnccc4C(F)(F)F)cnc23)cn1 [Compound 46, N-[5-(trifluoromethyl)-2-pyrazinyl]-3-[4-(trifluoromethyl)-3-pyridazinyl]pyrido[2,3-b]pyrazin-8-amine] |  | < 1000
CS(=O)(=O)c1ccc(Nc2ccnc3nc(-c4nnccc4C(F)(F)F)cnc23)nc1 [Compound 47, N-[5-(methylsulfonyl)-2-pyridinyl]-3-[4-(trifluoromethyl)-3-pyridazinyl]pyrido[2,3-b]pyrazin-8-amine] |  | < 1000
CC(C)Nc1nc(Nc2ccnc3nc(-c4nnccc4C(F)(F)F)cnc23)ccc1C(F)(F)F [Compound 48, N2-isopropyl-3-(trifluoromethyl)-N-~6~-{3-[4-(trifluoromethyl)pyridazin-3-yl]pyrido[2,3-b]pyrazin-8-yl}pyridine-2,6-diamine] |  | < 1000
COc1nc(Nc2ccnc3nc(-c4nnccc4C(F)(F)F)cnc23)ccc1C(F)(F)F [Compound 49, N-[6-methoxy-5-(trifluoromethyl)pyridin-2-yl]-3-[4-(trifluoromethyl)pyridazin-3-yl]pyrido[2,3-b]pyrazin-8-amine] |  | < 1000
CCOc1cc(C(F)(F)F)c(-c2cnc3c(Nc4ccc(C(F)(F)F)cn4)ccnc3n2)nn1 [Compound 50, 3-[6-ethoxy-4-(trifluoromethyl)pyridazin-3-yl]-N-[5-(trifluoromethyl)pyridin-2-yl]pyrido[2,3-b]pyrazin-8-amine] |  | < 1000
CCCOCCNc1cc(C(F)(F)F)c(-c2cnc3c(Nc4ccc(C(F)(F)F)cn4)ccnc3n2)nn1 [Compound 52, 3-[6-[(2-propoxyethyl)amino]-4-(trifluoromethyl)pyridazin-3-yl]-N-[5-(trifluoromethyl)pyridin-2-yl]pyrido[2,3-b]pyrazin-8-amine] |  | < 1000
FC(F)(F)c1ccc(Nc2ccnc3nc(-c4nnc(N5CCOCC5)cc4C(F)(F)F)cnc23)nc1 [Compound 53, 3-[6-morpholin-4-yl-4-(trifluoromethyl)pyridazin-3-yl]-N-[5-(trifluoromethyl)pyridin-2-yl]pyrido[2,3-b]pyrazin-8-amine] |  | < 1000
CN(C)c1cc(C(F)(F)F)c(-c2cnc3c(Nc4ccc(C(F)(F)F)cn4)ccnc3n2)nn1 [Compound 54, 3-[6-(dimethylamino)-4-(trifluoromethyl)pyridazin-3-yl]-N-[5-(trifluoromethyl)pyridin-2-yl]pyrido[2,3-b]pyrazin-8-amine] |  | < 1000
N#Cc1cc(C(F)(F)F)c(-c2cnc3c(Nc4ccc(C(F)(F)F)cn4)ccnc3n2)nn1 [Compound 55, 5-(trifluoromethyl)-6-(8-{[5-(trifluoromethyl)pyridin-2-yl]amino}pyrido[2,3-b]pyrazin-3-yl)pyridazine-3-carbonitrile] |  | < 1000
